Target: T1, Z A1AT (Homo sapiens, UniProt P01009, E366K)
T1 construct: expressed in transfected cells; host or cells: HEK-Z cells (human embryonic kidney cell line)
Experiment: A1AT cell secretion assay using HEK-Z cells (A1AT ELISA of supernatants)
Type: cell-based
Conditions: 48 h, read-out: Median A1AT % increase over vehicle at 300 nM
Method: HEK-Z cells, a human embryonic kidney cell line stably transfected with the human Z A1AT gene, were plated into 96 well plates (3.0×10^5 cells/ml with 200 μl of media/well) overnight at 37° C. in a humidified atmosphere containing 5% CO2. Following incubation cells were washed with 200 μl serum-free media three times and media was replaced with treatments in quadruplicate using serum free media containing either vehicle, 10 μM suberanilohydroxamic acid (SAHA) or a compound of the invention ([…]) for 48 h in a 37° C. incubator in a final volume of 200 μl. At the end of the incubation step the supernatants were removed from the wells, centrifuged at 1000×g at 4° C. for 10 min and were assayed for human A1AT levels by ELISA (Human Serpin A1/α1-antitrypsin duo set ELISA, R& D Systems, DY1268) per manufacturer's instructions.
Briefly, a 96 well plate was coated with human A1AT capture antibody overnight at room temperature (1:180 dilution from stock, 100 μl final volume/well). The capture antibody was then removed and wells washed three times with 300 μl wash buffer (0.05% Tween 20 in PBS) and then 200 μl reagent diluent ([…]) was incubated in each well for 1 h at room temperature. Diluted samples, standards (125, 250, 500, 1000, 2000, 4000 and 8000 pg/ml A1AT) or blanks were then added to each well in duplicate and the plates were covered with a plate sealer and left at room temperature for 2 h. At the end of the sample incubation step, samples were removed and all wells washed as previously and 100 μl detection antibody (1:180 dilution from stock) was added to each well and incubated for a further 2 h at room temperature. Following incubation with detection antibody, supernatant was removed and wells were washed as previously and 100 μl streptavidin-HRP solution (1:200 dilution from stock) was added to each well for 20 min in the dark. After which, 50 μl stop solution (2M H2SO4) was added and optical density (OD) of each well was read at 450 nm with 570 nm blank subtracted from each well using a microplate reader. A 4 parameter logistic curve was constructed using GraphPad Prism 7 and A1AT concentrations were determined in each sample by interpolation from a standard curve and multiplying by the appropriate dilution factor.

T1 sequence (P01009 25-418 E366K): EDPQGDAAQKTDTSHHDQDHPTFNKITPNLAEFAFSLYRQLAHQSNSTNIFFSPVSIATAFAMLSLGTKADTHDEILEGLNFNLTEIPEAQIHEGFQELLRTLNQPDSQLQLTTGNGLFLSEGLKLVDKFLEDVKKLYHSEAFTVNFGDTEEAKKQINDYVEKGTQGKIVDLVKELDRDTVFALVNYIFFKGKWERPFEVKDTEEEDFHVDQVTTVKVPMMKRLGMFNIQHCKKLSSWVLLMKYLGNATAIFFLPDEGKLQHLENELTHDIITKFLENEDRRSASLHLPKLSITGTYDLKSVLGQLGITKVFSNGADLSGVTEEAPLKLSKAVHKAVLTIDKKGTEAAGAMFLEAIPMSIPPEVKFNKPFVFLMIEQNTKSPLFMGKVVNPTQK

| Compound | activation at 0.3 µM [%] |
| --- | --- |
| CN(CC(F)(F)F)C(=O)c1ccc(Cn2cnc3ccccc3c2=O)cc1 [Example 17, N-methyl-4-((4-oxoquinazolin-3(4H)-yl)methyl)-N-(2,2,2-trifluoroethyl)benzamide] | 170 |
| CNC(=O)c1ccc(Cn2cnc3ccccc3c2=O)cc1 [Example 5, N-Methyl-4-((4-oxoquinazolin-3(4H)-yl)methyl)benzamide] | 180 |
| CN(Cc1ccccc1)C(=O)c1ccc(Cn2cnc3ccccc3c2=O)cc1 [Example 16, N-benzyl-N-methyl-4-((4-oxoquinazolin-3(4H)-yl)methyl)benzamide] | 160 |
| CC(C)N(C)C(=O)c1ccc(Cn2cnc3ccccc3c2=O)cc1 [Example 15, N-isopropyl-N-methyl-4-((4-oxoquinazolin-3(4H)-yl)methyl)benzamide] | 190 |

Same assay, conditions: HEK-Z cells, 300 nM, 48 h, secreted human A1AT in supernatant by ELISA; read-out: Median A1AT % increase over vehicle at 300 nM

| activation at 0.3 µM [%] | Compound |
| --- | --- |
| 200 | CNC(=O)c1ccc(Cn2cnc3ccc(Cl)cc3c2=O)cc1 [Example 6, 4-((6-chloro-4-oxoquinazolin-3(4H)-yl)methyl)-N-methylbenzamide] |
| 160 | CC(C)N(C)C(=O)c1ccc(Cn2cnccc2=O)cc1 [Example 7, N-isopropyl-N-methyl-4-((6-oxopyrimidin-1(6H)-yl)methyl)benzamide] |
| 190 | O=C(NCc1ccc(F)cc1)c1ccc(Cn2cnccc2=O)cc1 [Example 13, N-(4-fluorobenzyl)-4-((6-oxopyrimidin-1(6H)-yl)methyl)benzamide] |
| 390 | CN1CCN(C(=O)c2ccc(Cn3cnccc3=O)cc2)CC1 [Example 4, 3-(4-(4-Methylpiperazine-1-carbonyl)benzyl)pyrimidin-4(3H)-one] |
| 170 | Cc1ncn(Cc2ccc(C(=O)N(C)C)cc2)c(=O)c1C [Example 18, 4-((4,5-dimethyl-6-oxopyrimidin-1(6H)-yl)methyl)-N,N-dimethylbenzamide] |
| 330 | CCN(C)C(=O)c1ccc(Cn2cnccc2=O)cc1 [Example 1, N-Ethyl-N-methyl-4-((6-oxopyrimidin-1(6H)-yl)methyl)benzamide] |
| 350 | O=C(c1ccc(Cn2cnccc2=O)cc1)N1CCCC1 [Example 2, 3-(4-(Pyrrolidine-1-carbonyl)benzyl)pyrimidin-4(3H)-one] |
| 180 | O=C(NCC(F)(F)F)c1ccc(Cn2cnccc2=O)cc1 [Example 14, 4-((6-oxopyrimidin-1(6H)-yl)methyl)-N-(2,2,2-trifluoroethyl)benzamide] |
| 150 | CN(Cc1ccccc1)C(=O)c1ccc(Cn2cnccc2=O)cc1 [Example 8, N-benzyl-N-methyl-4-((6-oxopyrimidin-1(6H)-yl)methyl)benzamide] |
| 210 | CC(C)NC(=O)c1ccc(Cn2cnccc2=O)cc1 [Example 12, N-isopropyl-4-((6-oxopyrimidin-1(6H)-yl)methyl)benzamide] |
| 170 | CN(CC(F)(F)F)C(=O)c1ccc(Cn2cnccc2=O)cc1 [Example 9, N-methyl-4-((6-oxopyrimidin-1(6H)-yl)methyl)-N-(2,2,2-trifluoroethyl)benzamide] |
| 260 | NC(=O)c1ccc(Cn2cnccc2=O)cc1 [Example 10, 4-((6-oxopyrimidin-1(6H)-yl)methyl)benzamide] |
| 230 | CCN(CC)C(=O)c1ccc(Cn2cnccc2=O)cc1 [Example 11, N,N-diethyl-4-((6-oxopyrimidin-1(6H)-yl)methyl)benzamide] |
| 280 | O=C(c1ccc(Cn2cnccc2=O)cc1)N1CCOCC1 [Example 3, 3-(4-(Morpholine-4-carbonyl)benzyl)pyrimidin-4(3H)-one] |

Source: patent US20230102488A1, “COMPOUNDS AND THEIR USE FOR THE TREATMENT OF ALPHA1-ANTITRYPSIN DEFICIENCY” (Z Factor Limited, priority 2019, published 2023)
